Test results: US20070293576A1, “Pharmaceutical Methods, Dosing Regimes And Dosage Forms For The Treatment Of Alzheimer's Disease” (Myriad Genetics, Incorporated, priority 2003, published 2007)
Like-named read-outs stand apart in the source and are kept apart here.

Key:
[1] = molecular target: cytochrome P450 (CYP) 2C9 (Homo sapiens, UniProt P11712); settings: cited from earlier work
[2] = test system: patients with Alzheimer's disease; settings: clinical trials; rofecoxib at 25 mg daily; cited from earlier work
[3] = Phase I pharmacokinetic study of R-flurbiprofen in plasma, one compartment model; assay type: in vivo, human; settings: oral capsules, plasma Study Day 21, mean value one compartment model
Description: The study is conducted as a double-blind, placebo-controlled, sequential, ascending dose level, multiple dose study, including men and women. Sixteen subjects are assigned to each of three sequential cohorts: 200 mg BID, 400 mg BID, and 800 mg BID of R-flurbiprofen, each with matched placebo BID. Each cohort contains a 3:1 ratio of assignment to active drug (n=12) versus placebo (n=4), resulting in 4 treatment groups of 12 subjects each after combining the 3 placebo groups. The study is balanced by site and stratified by gender. Subjects receive either R-flurbiprofen at the specified dose or a matched placebo orally for 21 days. Blood and urine samples are collected for laboratory safety data at Study Day 1, Study Day 21, and End of Study (30-Day Follow Up) visit. Blood and CSF are collected for pharmacokinetic and biomarker measures at Study Day 1 and after 21 days of treatment with the study drug.
Subjects are instructed to take 1 capsule from Bottle A and 1 capsule from Bottle B 2 times per day (BID) for 20 days; Bottles A and B may contain R-flurbiprofen or placebo. The intraday dosing interval is approximately 12 hours, and the study drug is taken at approximately the same time each day. After 20 days (i.e., on Study Day 21), study participants undergo a pharmacokinetic study, as described below. Daily doses for the 4 groups of the study are: • 400 mg R-flurbiprofen (given as one 200 mg capsule and 1 placebo capsule BID) • 800 mg R-flurbiprofen (given as one 400 mg capsule and 1 placebo capsule BID) • 1600 mg R-flurbiprofen (given as two 400 mg capsules BID)
Blood and urine samples are collected on Study Day 21 from fasted participants for clinical chemistries, hematology, coagulation parameters, and urinalysis. Blood samples are collected on Study Day 21 at 0.5, 1, 2, 4, and 6 hours, and, if possible, 8 and 24 hours, after administration of the final dose of study drug. The total amount of blood collected for the pharmacokinetic analyses is approximately 64 mL. All blood samples for PK/PD analysis are analyzed for both R-flurbiprofen and S-flurbiprofen, and the extent of bioinversion of R-flurbiprofen to S-flurbiprofen is assessed.
The plasma concentration time profile of R-flurbiprofen is analyzed using nonlinear modeling, and preliminary estimates of PK parameters are obtained. Estimates include individual and mean half-life, clearance, AUC, Cmax, Tmax, and average steady-state concentration. Cerebrospinal fluid levels of R-flurbiprofen are summarized. If plasma concentrations over time are similar to those found in other patient populations, Bayesian estimation is used to estimate population PK parameters, allowing the PK parameters observed in this population to be evaluated in the context of data observed in additional clinical studies. Estimates include the mean and individual PK parameters as well as the magnitude of intersubject variability.
A clinical trial was conducted as described in Example 5, above. Pharmacokinetic parameters were determined using WinNonlin® Version 4.0 (Pharsight, Mountain View, Calif.). A one compartment model with first order elimination and uniform weighting was used with WinNonlin estimated parameter boundaries for absorption rate (K01), elimination rate (K10) and volume (V_F). Individual and mean value parameters derived include K10 half-life, Cmax (maximum plasma concentration), Tmax (time of maximum plasma concentration), AUC (area under the plasma time and concentration curve), and Cl_F (clearance). The model calculates the concentration at time T as follows: C(T)=D*K01/V/(K01−K10)*(EXP(−K10*T)−EXP(−K01*T)) (1), where C(T) is concentration at time T; D=dose; V is volume; V_F is volume of distribution over systemic availability; K01 is the absorption rate constant; K10 is elimination rate constant; CL_F is clearance over systemic availability; and T is time. […]

Aβ42 [4] = settings: transgenic mouse model; cited from earlier work
Aβ42 [5] = settings: CHO cells; cited from earlier work
COX = settings: cited from earlier work
[6] = test system: patients having mild cognitive impairment; settings: cited from earlier work
[7] = 200 mg BID group, modeled as single 200 mg dose
[8] = 400 mg BID group, modeled as single 400 mg dose
[9] = 800 mg BID group, modeled as single 800 mg dose

Sequence of cytochrome P450 (CYP) 2C9 (P11712 whole entry): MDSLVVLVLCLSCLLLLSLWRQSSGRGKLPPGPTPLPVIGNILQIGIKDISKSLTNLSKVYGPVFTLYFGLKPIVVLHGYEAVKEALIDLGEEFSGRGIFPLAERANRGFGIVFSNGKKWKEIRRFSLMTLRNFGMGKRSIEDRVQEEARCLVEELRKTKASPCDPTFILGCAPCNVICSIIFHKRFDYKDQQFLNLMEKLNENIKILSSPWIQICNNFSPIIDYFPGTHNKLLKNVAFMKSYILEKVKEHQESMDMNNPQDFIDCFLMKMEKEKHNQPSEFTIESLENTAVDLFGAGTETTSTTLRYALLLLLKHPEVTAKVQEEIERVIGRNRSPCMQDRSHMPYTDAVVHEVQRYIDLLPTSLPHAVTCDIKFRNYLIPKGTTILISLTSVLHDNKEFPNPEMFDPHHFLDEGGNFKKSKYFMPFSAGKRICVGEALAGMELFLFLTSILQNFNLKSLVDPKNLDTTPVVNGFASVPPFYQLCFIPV

CC(C(=O)O)c1ccc(-c2ccccc2)c(F)c1 (racemic) [flurbiprofen, (R,S)-(2-fluoro-biphenylyl)propionic acid, reference compound]
inhibition of the metabolism of drugs that are substrates of CYP2C9 [1]: inhibit the metabolism

COc1ccc2cc([C@H](C)C(=O)O)ccc2c1 [Naproxen]
efficacy for treating AD [2]: failed to show efficacy

C[C@@H](C(=O)O)c1ccc(-c2ccccc2)c(F)c1 [R-flurbiprofen]
AUC [3, 7]: 246 µg·h/mL | CL_F [3, 7]: 812 mL/h | K10_HL [3, 7]: 6.56 h | Tmax [3, 7]: 2.28 h | AUC [3, 8]: 577 µg·h/mL | CL_F [3, 8]: 693 mL/h | K10_HL [3, 8]: 8.04 h | Tmax [3, 8]: 1.58 h | AUC [3, 9]: 487 µg·h/mL | CL_F [3, 9]: 1642 mL/h | K10_HL [3, 9]: 5.90 h | Tmax [3, 9]: 0.86 h | effect on Aβ42 (Aβ42 [4]): lower Aβ42 | effect on Aβ42 (Aβ42 [5]): lower Aβ42 | inhibition of COX activity (COX): negligibly inhibits | inhibition of the metabolism of drugs that are substrates of CYP2C9 [1]: inhibit the metabolism

CS(=O)(=O)c1ccc(C2=C(c3ccccc3)C(=O)OC2)cc1 [rofecoxib]
prevention of the development of Alzheimer's disease ([6]; large prevention clinical trial): failed to prevent the development of Alzheimer's disease | patients who developed AD ([6]; large prevention trial, 4.5% for placebo): 6.4% | efficacy for treating AD [2]: failed to show efficacy
